Assay results as given in PubChem BioAssay (NCI).
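Growth conditions: 96-well plates. Treatment: test compound, 48 hours, 5 concentrations. Analysis: linear interpolation between bracketing concentrations; unreached endpoints set to highest concentration. TGI: total growth inhibition.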

Experiments:
Assay in all cases: NCI-60 cell line screen, 48 h
MCF7 breast = tested on: MCF7 breast
DU-145 prostate = tested on: DU-145 prostate
SR leukemia = tested on: SR leukemia
MDA-MB-435 = tested on: MDA-MB-435
T-47D breast = tested on: T-47D breast
M14 melanoma = tested on: M14 melanoma
A498 renal = tested on: A498 renal
A549 NSCLC = tested on: A549 NSCLC
OVCAR-4 ovarian = tested on: OVCAR-4 ovarian
NCI-H23 lung = tested on: NCI-H23 lung
SF-539 CNS = tested on: SF-539 CNS
SN12C renal = tested on: SN12C renal
HCT-116 colon = tested on: HCT-116 colon
HOP-92 NSCLC = tested on: HOP-92 NSCLC
OVCAR-3 ovarian = tested on: OVCAR-3 ovarian
786-0 renal = tested on: 786-0 renal
OVCAR-8 ovarian = tested on: OVCAR-8 ovarian
UO-31 renal = tested on: UO-31 renal
PC-3 prostate = tested on: PC-3 prostate
SK-MEL-2 melanoma = tested on: SK-MEL-2 melanoma
IGROV1 ovarian = tested on: IGROV1 ovarian
CCRF-CEM leukemia = tested on: CCRF-CEM leukemia
SK-OV-3 ovarian = tested on: SK-OV-3 ovarian
HCT-15 colon = tested on: HCT-15 colon
MOLT-4 leukemia = tested on: MOLT-4 leukemia
TK-10 renal = tested on: TK-10 renal
MDA-N = tested on: MDA-N
SF-295 CNS = tested on: SF-295 CNS
NCI-H522 lung = tested on: NCI-H522 lung
LOX IMVI melanoma = tested on: LOX IMVI melanoma
MALME-3M melanoma = tested on: MALME-3M melanoma
HOP-62 NSCLC = tested on: HOP-62 NSCLC
OVCAR-5 ovarian = tested on: OVCAR-5 ovarian
HT29 colon = tested on: HT29 colon
SK-MEL-28 melanoma = tested on: SK-MEL-28 melanoma
BT-549 breast = tested on: BT-549 breast
NCI-H460 lung = tested on: NCI-H460 lung
MDA-MB-231 breast = tested on: MDA-MB-231 breast
HCC-2998 colon = tested on: HCC-2998 colon
EKVX NSCLC = tested on: EKVX NSCLC
UACC-62 melanoma = tested on: UACC-62 melanoma
RXF 393 renal = tested on: RXF 393 renal
UACC-257 melanoma = tested on: UACC-257 melanoma
NCI/ADR-RES ovarian = tested on: NCI/ADR-RES ovarian
SK-MEL-5 melanoma = tested on: SK-MEL-5 melanoma
SF-268 CNS = tested on: SF-268 CNS
KM12 colon = tested on: KM12 colon
K-562 leukemia = tested on: K-562 leukemia
U251 CNS = tested on: U251 CNS
CAKI-1 renal = tested on: CAKI-1 renal
RPMI-8226 leukemia = tested on: RPMI-8226 leukemia
HS 578T breast = tested on: HS 578T breast
ACHN renal = tested on: ACHN renal
SNB-19 CNS = tested on: SNB-19 CNS
NCI-H226 lung = tested on: NCI-H226 lung
SW-620 colon = tested on: SW-620 colon
SNB-75 CNS = tested on: SNB-75 CNS
HL-60(TB) leukemia = tested on: HL-60(TB) leukemia

For `O=C1NC(c2ccccc2)N=C2Oc3ccccc3C=C12` (configuration not stated), which TGI (MCF7 breast) is on record?
Its TGI is greater than 100 µM.

And the TGI (DU-145 prostate)?
The TGI was greater than 100 µM.

What about the TGI (SR leukemia) of the same compound?
Its TGI is greater than 100 µM.

What about the TGI (MDA-MB-435) of the same compound?
Its TGI is 138 nM.

And the TGI (T-47D breast)?
The TGI was greater than 100 µM.

And the TGI (M14 melanoma)?
Its TGI is greater than 31.6 µM.

And the TGI (A498 renal)?
Its TGI is greater than 81.8 µM.

And the TGI (A549 NSCLC)?
Its TGI is greater than 100 µM.

What about the TGI (OVCAR-4 ovarian) of the same compound?
The TGI was greater than 100 µM.

What about the TGI (NCI-H23 lung) of the same compound?
The TGI was greater than 100 µM.

What about the TGI (SF-539 CNS) of the same compound?
Its TGI is 17.6 µM.

What about the TGI (SN12C renal) of the same compound?
The TGI was greater than 100 µM.

And the TGI (HCT-116 colon)?
The TGI was greater than 100 µM.

What about the TGI (HOP-92 NSCLC) of the same compound?
The TGI was greater than 100 µM.

What about the TGI (OVCAR-3 ovarian) of the same compound?
The TGI was greater than 100 µM.

And the TGI (786-0 renal)?
The TGI was greater than 39 µM.

What about the TGI (OVCAR-8 ovarian) of the same compound?
The TGI was greater than 100 µM.

And the TGI (UO-31 renal)?
Its TGI is greater than 100 µM.

What about the TGI (PC-3 prostate) of the same compound?
The TGI was greater than 100 µM.

And the TGI (SK-MEL-2 melanoma)?
The TGI was greater than 100 µM.

What about the TGI (IGROV1 ovarian) of the same compound?
Its TGI is greater than 74.4 µM.

And the TGI (CCRF-CEM leukemia)?
The TGI was 2650 nM.

What about the TGI (SK-OV-3 ovarian) of the same compound?
Its TGI is greater than 100 µM.

And the TGI (HCT-15 colon)?
The TGI was greater than 100 µM.

What about the TGI (MOLT-4 leukemia) of the same compound?
The TGI was greater than 100 µM.

And the TGI (TK-10 renal)?
Its TGI is greater than 100 µM.

And the TGI (MDA-N)?
Its TGI is 1120 nM.

What about the TGI (SF-295 CNS) of the same compound?
Its TGI is greater than 100 µM.

What about the TGI (NCI-H522 lung) of the same compound?
Its TGI is greater than 100 µM.

And the TGI (LOX IMVI melanoma)?
Its TGI is greater than 31.6 µM.

What about the TGI (MALME-3M melanoma) of the same compound?
The TGI was greater than 100 µM.

What about the TGI (HOP-62 NSCLC) of the same compound?
Its TGI is greater than 66.7 µM.

And the TGI (OVCAR-5 ovarian)?
The TGI was greater than 100 µM.

And the TGI (HT29 colon)?
Its TGI is greater than 23.6 µM.

What about the TGI (SK-MEL-28 melanoma) of the same compound?
Its TGI is greater than 100 µM.

What about the TGI (BT-549 breast) of the same compound?
Its TGI is greater than 100 µM.

And the TGI (NCI-H460 lung)?
The TGI was greater than 43.7 µM.

What about the TGI (MDA-MB-231 breast) of the same compound?
The TGI was greater than 31.6 µM.

And the TGI (HCC-2998 colon)?
Its TGI is 238 nM.

And the TGI (EKVX NSCLC)?
The TGI was greater than 100 µM.

What about the TGI (UACC-62 melanoma) of the same compound?
Its TGI is greater than 100 µM.

What about the TGI (RXF 393 renal) of the same compound?
Its TGI is greater than 100 µM.

And the TGI (UACC-257 melanoma)?
The TGI was greater than 100 µM.

What about the TGI (NCI/ADR-RES ovarian) of the same compound?
Its TGI is greater than 31.3 µM.

What about the TGI (SK-MEL-5 melanoma) of the same compound?
Its TGI is greater than 100 µM.

What about the TGI (SF-268 CNS) of the same compound?
The TGI was greater than 84.7 µM.

What about the TGI (KM12 colon) of the same compound?
Its TGI is greater than 22.8 µM.

What about the TGI (K-562 leukemia) of the same compound?
The TGI was greater than 100 µM.

And the TGI (U251 CNS)?
The TGI was greater than 100 µM.

What about the TGI (CAKI-1 renal) of the same compound?
Its TGI is 420 nM.

And the TGI (RPMI-8226 leukemia)?
The TGI was greater than 100 µM.

What about the TGI (HS 578T breast) of the same compound?
Its TGI is 7.06 µM.

What about the TGI (ACHN renal) of the same compound?
The TGI was greater than 100 µM.

And the TGI (SNB-19 CNS)?
The TGI was greater than 100 µM.

And the TGI (NCI-H226 lung)?
Its TGI is 12.8 µM.

What about the TGI (SW-620 colon) of the same compound?
Its TGI is greater than 100 µM.

Which results are given for `COC(=O)CNCC1OC2OC(C)(C)OC2C1N=[N+]=[N-]` (configuration not stated)?
TGI (SNB-75 CNS): > 100 µM; TGI (MCF7 breast): > 100 µM; TGI (DU-145 prostate): > 100 µM; TGI (SR leukemia): > 100 µM; TGI (MDA-MB-435): > 100000 nM; TGI (T-47D breast): > 100 µM; TGI (A498 renal): > 100 µM; TGI (A549 NSCLC): > 100 µM; TGI (OVCAR-4 ovarian): > 100 µM; TGI (SF-539 CNS): > 100 µM; TGI (SN12C renal): > 100 µM; TGI (HCT-116 colon): > 100 µM; TGI (HOP-92 NSCLC): > 100 µM; TGI (OVCAR-3 ovarian): > 100 µM; TGI (786-0 renal): > 100 µM; TGI (OVCAR-8 ovarian): > 100 µM; TGI (UO-31 renal): > 100 µM; TGI (PC-3 prostate): > 100 µM; TGI (SK-MEL-2 melanoma): > 100 µM; TGI (IGROV1 ovarian): > 100 µM; TGI (CCRF-CEM leukemia): > 100000 nM; TGI (SK-OV-3 ovarian): > 100 µM; TGI (HCT-15 colon): > 100 µM; TGI (MOLT-4 leukemia): > 100 µM; TGI (TK-10 renal): > 100 µM; TGI (MDA-N): > 100000 nM; TGI (SF-295 CNS): > 100 µM; TGI (LOX IMVI melanoma): > 100 µM; TGI (HOP-62 NSCLC): > 100 µM; TGI (OVCAR-5 ovarian): > 100 µM; TGI (HT29 colon): > 100 µM; TGI (SK-MEL-28 melanoma): > 100 µM; TGI (BT-549 breast): > 100 µM; TGI (NCI-H460 lung): > 100 µM; TGI (EKVX NSCLC): > 100 µM; TGI (UACC-62 melanoma): > 100 µM; TGI (RXF 393 renal): > 100 µM; TGI (UACC-257 melanoma): > 100 µM; TGI (NCI/ADR-RES ovarian): > 100 µM; TGI (SK-MEL-5 melanoma): > 100 µM; TGI (KM12 colon): > 100 µM; TGI (K-562 leukemia): > 100 µM; TGI (U251 CNS): > 100 µM; TGI (CAKI-1 renal): > 100000 nM; TGI (RPMI-8226 leukemia): > 100 µM; TGI (HS 578T breast): > 100 µM; TGI (HL-60(TB) leukemia): > 100 µM; TGI (ACHN renal): > 100 µM; TGI (SNB-19 CNS): > 100 µM; TGI (NCI-H226 lung): > 100 µM; TGI (SW-620 colon): > 100 µM
